Results taken from PMC4718634, “Murine GPRC6A Mediates Cellular Responses to L-Amino Acids, but Not Osteocalcin Variants” (PLoS ONE, 2016).
“Also recorded” adds a separate entry of the source.

What was measured:
mGPRC6A (mouse GPRC6A) = target: T1, mGPRC6A (mouse GPRC6A) (Mus musculus, UniProt Q8K4Z6); experiment: ERK1/2 phosphorylation, FlpIn-TREx-HEK293-mGPRC6A cells; assay type: cell-based
T1 sequence (Q8K4Z6 21-928): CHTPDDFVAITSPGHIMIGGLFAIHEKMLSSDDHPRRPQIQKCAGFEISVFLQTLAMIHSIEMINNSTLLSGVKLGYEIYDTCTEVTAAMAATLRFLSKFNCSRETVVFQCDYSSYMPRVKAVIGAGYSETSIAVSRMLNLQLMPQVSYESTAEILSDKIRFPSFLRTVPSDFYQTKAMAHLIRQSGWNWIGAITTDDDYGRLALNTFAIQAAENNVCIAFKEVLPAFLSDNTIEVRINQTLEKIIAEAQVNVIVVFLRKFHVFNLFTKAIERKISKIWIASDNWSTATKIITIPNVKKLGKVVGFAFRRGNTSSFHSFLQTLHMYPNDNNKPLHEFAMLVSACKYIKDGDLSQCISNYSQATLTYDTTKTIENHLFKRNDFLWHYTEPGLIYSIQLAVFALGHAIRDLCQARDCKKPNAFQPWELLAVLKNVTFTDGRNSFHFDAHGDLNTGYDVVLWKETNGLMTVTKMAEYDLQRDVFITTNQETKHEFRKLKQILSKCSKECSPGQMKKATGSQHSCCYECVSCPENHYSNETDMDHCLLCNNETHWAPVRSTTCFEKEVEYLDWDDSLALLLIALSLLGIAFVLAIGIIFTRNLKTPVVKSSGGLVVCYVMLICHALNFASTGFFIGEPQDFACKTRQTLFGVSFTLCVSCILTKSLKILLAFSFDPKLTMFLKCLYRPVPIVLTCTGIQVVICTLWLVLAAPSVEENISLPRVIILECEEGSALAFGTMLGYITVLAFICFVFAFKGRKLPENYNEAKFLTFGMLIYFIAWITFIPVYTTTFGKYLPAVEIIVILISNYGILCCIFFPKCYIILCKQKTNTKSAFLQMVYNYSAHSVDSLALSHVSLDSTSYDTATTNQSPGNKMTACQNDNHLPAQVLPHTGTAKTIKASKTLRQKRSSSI
Procedure: pcDNA 5/FRT/TO constructs were isogenically integrated into a FlpIn-TREx-HEK293 cell line (Life Technologies). FlpIn-TREx-HEK293-mGPRC6A and FlpIn-TREx-HEK293-hGPRC6A cells were then selected using 600 μg/ml hygromycin and 5 μg/ml blasticidin and grown in culture medium consisting of Dulbecco’s Modified Eagle Medium (DMEM), supplemented with 10% (v/v) foetal bovine serum (FBS) at 37°C in 5% CO2 and were sub-cultured in a 1:3 ratio every 3–4 days. Cells were cultured overnight in the presence of 1 μg/ml tetracycline to induce GPRC6A expression. […] 48 h after transfection, cells were selected using 3 μg/ml puromycin and grown as above.
Cells were then stimulated with ligand at various time points and incubated at 37°C in 5% CO2. 10% FBS (v/v) was used as a positive control. The reaction was terminated by removal of compounds and lysis of cells with SureFire lysis buffer (TGR Biosciences). The lysates were then treated as per the SureFire ERK1/2 kit instructions. Plates were incubated in the dark at 37°C for 1 h, then left to equilibrate with the ambient temperature before the fluorescence signal was measured using a Fusion plate reader (PerkinElmer) with standard AlphaScreen settings. Data were normalised to the maximal response elicited by 10% FBS (v/v) at the same time point.

β-TC6 cells = experiment: Insulin release from β-TC6 cells; assay type: cell-based, murine; conditions: S3 Fig A
Procedure: MIN6 or βTC-6 cells were seeded in 24-well plates at 170,000 cells per well in DMEM (containing 4.5g/L glucose, 10 mM HEPES, 100 U/ml penicillin, 100 μg/ml streptomycin and 15% de-complemented FBS) and incubated at 37°C / 5% CO2 for 72 h. Cells were then washed with 500 μl PBS and incubated in 500 μl deprivation media (DMEM with zero glucose, 10 mM HEPES, 1 mM Na-pyruvate, 100 U/ml penicillin, 100 μg/ml streptomycin, 15% de-complemented FBS) for 2 h at 37°C. Media was aspirated and after washing with 500 μl PBS, cells were treated with 250 μl of Krebs buffer (250 mM NaCl, 5.9 mM KCl, 1.2 mM MgCl2, 1.3 mM CaCl2, 25 mM HEPES, 0.1% BSA (w/v), and 2 mM or 16.7 mM glucose; pH 7.4) in the presence or absence of test compound. After incubation for 2 h at 37°C, the assay was terminated by placing the plates on ice and supernatants were transferred to a 96-well plate in preparation for insulin ELISA (Alpco) following manufacturer’s instructions. The cell monolayer was washed twice with 500 μl of PBS and then lysed using 250 μl of 1 N NaOH prior to protein measurement by the method of Bradford (1976).
Concentration-response data were analysed using a three or four parameter logistic function (Motulsky & Christopoulos, 2004) to generate estimates of agonist potency (LogEC50). Data for all HEK293 assays represent the mean ± SEM of at least three independent experiments (except cell impedance, n = 2). For GLP-1 release, the data represent mean ± SEM of three to five independent experiments (except for OCN, wash; n = 2). For insulin release assays, data represent the mean ± SEM of three independent experiments (except for islet studies; n = 2). Insulin release data were normalised to the response to vehicle in either low or high [glucose]. Statistical analysis for GLP-1 release data were performed by one-way ANOVA, followed by Sidak’s multiple comparisons test (treating wash / no wash datasets separately). Statistical analyses for insulin release data were performed by two-way ANOVA (with [glucose] and drug treatment as group variables), followed by Sidak’s multiple comparisons test. Where only high [glucose] groups were evaluated, statistical analysis was by one-way ANOVA followed by Sidak’s multiple comparisons test.

| pERK1/2 response (summary) (mGPRC6A (mouse GPRC6A); S1 Table) | Compound | stimulation of ERK1/2 phosphorylation (mGPRC6A (mouse GPRC6A); without GαqG66D, L-ornithine 1 mM, OCN variants 40 ng/ml, Fig 3B) | glucose-sensitive insulin secretion, L-ornithine (β-TC6 cells; L-ornithine 20 mM) | insulin secretion, OCN (β-TC6 cells; OCN 0.03–100 ng/ml, both glucose concentrations) |
| --- | --- | --- | --- | --- |
| – | NCCC[C@H](N)C(=O)O [L-ornithine] | Neither L-ornithine (1 mM) nor OCN variants (40 ng/ml) stimulate ERK1/2 phosphorylation; also recorded: no detectable modulation of cAMP accumulation or phosphorylation of ERK1/2 | no significant effect | – |
| no response | OCN: osteoblast-derived peptide, osteocalcin; variant not specified at the place (YLYQWLGAPVPYPDPLEPRREVCELNPDCDELADHIGFQEAYRRFYGPV; UniProt P02818 52-100, looked up) | – | – | no effect on insulin release; also recorded: failed to induce GSIS |
